Experimental data published in the OligoGym collection.
Values joined by “and” are separate entries in the source; they are usually repeats but may differ in a detail not shown here. Identical values can stand only once. After the bases stand the sugars from the 5' end (letter, count) and the backbone: PS all phosphorothioate, else s phosphorothioate and o phosphodiester by linkage. Methylation of C is not given here. e = 2'-O-(2-methoxyethyl) (MOE); k = constrained ethyl (cEt); d = 2'-deoxy (DNA)

Biological target: SOD1
Conditions: ASO

For “GCAGGATAACAGATGAG (sugars e2 k2 d9 k2 e2, PS)”, the target mRNA inhibition (HepG2, 0.1875 µM) was 31%, the target mRNA inhibition (HepG2, 0.75 µM) was 75% and the target mRNA inhibition (HepG2, 3 µM) was 90%. The target mRNA inhibition (HepG2, 4 µM) was 86% and 83% and the target mRNA inhibition (HepG2, 12 µM) was 89% and 97%.

“GCCCAAGTCATCTGCTT (sugars e3 k2 d7 k2 e3, PS)” was tested, and the target mRNA inhibition (HepG2, 3 µM) was 93%.

For “GCCGTCGCCCTTCAGCA (sugars e2 k2 d8 k2 e3, PS)”, the target mRNA inhibition (HepG2, 4 µM) was 64%.

Sequence “GCCTCAGACTACATCCA (sugars e3 k2 d7 k2 e3, PS)” has a target mRNA inhibition (HepG2, 3 µM) of 43%.

“GCGATCCCAATTACACC (sugars e2 k2 d9 k2 e2, PS)” gave a target mRNA inhibition (HepG2, 4 µM) of 58%.

“GCGATCCCAATTACACC (sugars e3 k2 d7 k2 e3, PS)” showed a target mRNA inhibition (HepG2, 3 µM) of 19%.

For “GCTTGAATGACAAAGAA (sugars e2 k2 d9 k2 e2, PS)”, the target mRNA inhibition (HepG2, 5 µM) was 32%.

“GGAATGTTTATTGGGCG (sugars e2 k2 d9 k2 e2, PS)” was tested, and the target mRNA inhibition (HepG2, 4 µM) was 58%.

In the case of “GGATAACAGATGAGTTAAGG (sugars e5 d10 e5, PS)”, the target mRNA inhibition (HepG2, 5 µM) is reported as 48%.

For “GGATACATTTCTACAGC (sugars e2 k2 d9 k2 e2, linkages s1 o3 s9 o1 s2)”, the target mRNA inhibition (A431, 0.12 µM) was 4%, the target mRNA inhibition (A431, 0.6 µM) was 12% and the target mRNA inhibition (A431, 3 µM) was 36%. The target mRNA inhibition (A431, 15 µM) was 51%, the target mRNA inhibition (HepG2, 0.222 µM) was 62% and the target mRNA inhibition (HepG2, 0.667 µM) was 78%. It also gave a target mRNA inhibition (HepG2, 2 µM) of 95% and a target mRNA inhibition (HepG2, 6 µM) of 91%.

With “GGATACATTTCTACAGC (sugars e4 d9 k2 e2, linkages s1 o3 s9 o1 s2)” the target mRNA inhibition (A431, 0.062 µM) was 0%, the target mRNA inhibition (A431, 0.185 µM) was 1% and the target mRNA inhibition (A431, 0.556 µM) was 13%. The target mRNA inhibition (A431, 1.667 µM) was 28%, the target mRNA inhibition (A431, 5 µM) was 42% and the target mRNA inhibition (A431, 15 µM) was 55%. For the same sequence, the target mRNA inhibition (SH-SY5Y, 0.062 µM) was 10%, the target mRNA inhibition (SH-SY5Y, 0.185 µM) was 3% and the target mRNA inhibition (SH-SY5Y, 0.556 µM) was 23%. It also gave a target mRNA inhibition (SH-SY5Y, 1.667 µM) of 35%, a target mRNA inhibition (SH-SY5Y, 5 µM) of 77% and a target mRNA inhibition (SH-SY5Y, 15 µM) of 78%.

“GGATTCTTTTAATAGCC (sugars e2 k2 d9 k2 e2, PS)” gave a target mRNA inhibition (HepG2, 5 µM) of 19%.

With “GGCCTCAGACTACATCC (sugars e2 k2 d8 k2 e3, PS)” the target mRNA inhibition (HepG2, 4 µM) was 70%.

With “GGCCTCAGACTACATCC (sugars e2 k2 d9 k2 e2, PS)” the target mRNA inhibition (HepG2, 0.1875 µM) was 4%, the target mRNA inhibition (HepG2, 0.75 µM) was 50% and the target mRNA inhibition (HepG2, 3 µM) was 68%. For the same sequence, the target mRNA inhibition (HepG2, 4 µM) was 76% and the target mRNA inhibition (HepG2, 12 µM) was 86%.

For “GGCCTCAGACTACATCC (sugars e3 k2 d7 k2 e3, PS)”, the target mRNA inhibition (HepG2, 3 µM) was 24%.

In the case of “GGCGATCCCAATTACACCAC (sugars e5 d8 e7, linkages s1 o3 s10 o3 s2)”, the target mRNA inhibition (A431, 0.062 µM) is reported as 0%, the target mRNA inhibition (A431, 0.185 µM) is reported as 9% and the target mRNA inhibition (A431, 0.556 µM) is reported as 0%. It also gave a target mRNA inhibition (A431, 1.667 µM) of 0%, a target mRNA inhibition (A431, 5 µM) of 4% and a target mRNA inhibition (A431, 15 µM) of 0%. The target mRNA inhibition (SH-SY5Y, 0.062 µM) was 5%, the target mRNA inhibition (SH-SY5Y, 0.185 µM) was 2% and the target mRNA inhibition (SH-SY5Y, 0.556 µM) was 16%. The target mRNA inhibition (SH-SY5Y, 1.667 µM) was 25%, the target mRNA inhibition (SH-SY5Y, 5 µM) was 36% and the target mRNA inhibition (SH-SY5Y, 15 µM) was 61%.

In the case of “GGCTTGAATGACAAAGA (sugars e2 k2 d9 k2 e2, PS)”, the target mRNA inhibition (HepG2, 5 µM) is reported as 44%.
